Measured values published in patent publication US10227360B2, “Compounds for use as GPR120 agonists” (PIRAMAL ENTERPRISES LIMITED, priority 2014, dated 2019).

Biological target: GPR120L receptor (Homo sapiens (Human), UniProt Q5NUL3)
Assay: Beta (β) arrestin 2 Interaction Assay (BRET assay), β-galactosidase enzyme fragment complementation
Type: cell-based
Conditions: CHO-K1 cells stably expressing the GPR120L receptor; β-arrestin recruitment; 2 hours incubation
Experimental: Beta (β) arrestin 2 Interaction Assay (BRET assay) was performed using CHO-K1 cells stably expressing the GPR120L receptor using β-galactosidase (Beta gal) enzyme fragment complementation assay. The measurement of GPR120 activation upon agonist activation was directly provided by β-arrestin recruitment. One day before the β-arrestin 2 assay, CHO-K1 cells were seeded and incubated overnight at 37° C. in a 5% CO2 humidified atmosphere. Cells were treated with the test compounds in the various concentrations ranging from 30 μM to 1 nM and incubated for 2 hours for GPCR (GPR120) activation. Extent of Arrestin recruitment was measured by adding detection reagents for Beta gal complementation assay and was further incubated for 1 hour. The chemi-luminescent signal was detected on Polar Star (BMG Labtech). The dose-response curve was analyzed using Sigma Plot/Graph Pad. The EC50 (concentration of the test compounds where 50% of compounds' maximal activity is observed) values were calculated from the dose-response curve.

Sequence of GPR120L receptor (Q5NUL3 other isoform, or with tags, fused parts or gaps): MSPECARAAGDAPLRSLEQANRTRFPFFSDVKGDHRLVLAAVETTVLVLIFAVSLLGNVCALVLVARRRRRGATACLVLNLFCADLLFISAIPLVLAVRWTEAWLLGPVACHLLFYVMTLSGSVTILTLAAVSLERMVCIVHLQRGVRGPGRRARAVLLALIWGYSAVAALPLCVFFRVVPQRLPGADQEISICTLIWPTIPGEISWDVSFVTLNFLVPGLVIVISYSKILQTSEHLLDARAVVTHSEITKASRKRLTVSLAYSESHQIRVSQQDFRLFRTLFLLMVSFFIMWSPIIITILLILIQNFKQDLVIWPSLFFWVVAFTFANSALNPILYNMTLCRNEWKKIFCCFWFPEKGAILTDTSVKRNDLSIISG

| Structure (SMILES) | EC50 [µM] |
| --- | --- |
| O=C(O)CCc1ccc(OCc2cc(F)ccc2-c2ccc(C3COC3)nc2)cc1 [Example 17, 3-(4-((5-Fluoro-2-(6-(oxetan-3-yl)pyridin-3-yl)benzyl)oxy)phenyl)propanoic acid] | 5 to 50 |
| N#CC1(c2ccc(-c3ccc(F)cc3COc3ccc(CCC(=O)O)nc3)cc2)CC1 [Example 18, 3-(5-((4′-(1-Cyanocyclopropyl)-4-fluoro-[1,1′-biphenyl]-2-yl)methoxy)pyridin-2-yl)propanoic acid] | 0.01 to 0.5 |
| N#CC1(c2ccc(-c3ccncc3COc3ccc(CCCC(=O)O)cc3)cc2)CC1 [Example 19, 4-(4-((4-(4-(1-Cyanocyclopropyl)phenyl)pyridin-3-yl)methoxy)phenyl)butanoic acid] | 0.5 to 5 |
| O=C(O)CCc1ccc(OCc2cc(F)ccc2-c2ccc3c(c2)CC3)cn1 [Example 20, 3-(5-((2-(Bicyclo[4.2.0]octa-1(6),2,4-trien-3-yl)-5-fluorobenzyl)oxy)pyridin-2-yl)propanoic acid] | 0.5 to 5 |
| N#CC1(c2ccc(-c3ncccc3COc3ccc(CCC(=O)O)cc3)cc2)CC1 [Example 21, 3-(4-((2-(4-(1-Cyanocyclopropyl)phenyl)pyridin-3-yl)methoxy)phenyl)propanoic acid] | 5 to 50 |
| O=C(O)CCCc1ccc(OCc2cc(F)ccc2-c2ccc3c(c2)CCO3)cc1 [Example 22, 4-(4-((2-(2,3-Dihydrobenzofuran-5-yl)-5-fluorobenzyl)oxy)phenyl)butanoic acid] | 0.01 to 0.5 |
| O=C(O)CCCc1ccc(OCc2cc(F)ccc2-c2cc3c(s2)CCCC3)cc1 [Example 23, 4-(4-((5-Fluoro-2-(4,5,6,7-tetrahydrobenzo[b]thiophen-2-yl)benzyl)oxy)phenyl)butanoic acid] | 0.01 to 0.5 |
| O=C(O)CCCc1ccc(OCc2cc(F)ccc2-c2cnc3c(c2)CCC3)cc1 [Example 24, 4-(4-((2-(6,7-Dihydro-5H-cyclopenta[b]pyridin-3-yl)-5-fluorobenzyl)oxy)phenyl)butanoic acid] | 0.01 to 0.5 |
| C=C1CCCc2nc(-c3ccc(F)cc3COc3ccc(CCCC(=O)O)cc3)sc21 [Example 25, 4-(4-((5-Fluoro-2-(7-methylene-4,5,6,7-tetrahydrobenzo[d]thiazol-2-yl)benzyl)oxy)phenyl)butanoic acid] | 0.5 to 5 |
| O=C(O)CCCc1ccc(OCc2ccccc2-c2ccc3c(c2)CC3)cc1 [Example 26, 4-(4-((2-(Bicyclo[4.2.0]octa-1(6),2,4-trien-3-yl)benzyl)oxy)phenyl)butanoic acid] | 0.01 to 0.5 |
| O=C(O)CCCc1ccc(OCc2ccccc2-c2ccc3c(c2)CCCC3)cc1 [Example 27, 4-(4-((2-(5,6,7,8-tetrahydronaphthalen-2-yl)benzyl)oxy)phenyl)butanoic acid] | 0.01 to 0.5 |
| O=C(O)CCCc1ccc(OCc2cc(F)ccc2-c2ccc(C3CCC3)s2)cc1 [Example 28, 4-(4-((2-(5-Cyclobutylthiophen-2-yl)-5-fluorobenzyl)oxy)phenyl)butanoic acid] | 0.01 to 0.5 |
| Cc1cc(-c2ccc(F)cc2COc2ccc(CCCC(=O)O)cc2)ccc1C1CC1 [Example 29, 4-(4-((4′-cyclopropyl-4-fluoro-3′-methyl-[1,1′-biphenyl]-2-yl)methoxy)phenyl)butanoic acid] | 0.01 to 0.5 |
| O=C(O)CCCc1ccc(OCc2cc(F)ccc2-c2ccc(C3CC3)nc2)cc1 [Example 30, 4-(4-((2-(6-Cyclopropylpyridin-3-yl)-5-fluorobenzyl)oxy)phenyl)butanoic acid] | 0.01 to 0.5 |
| O=C(O)CCCc1ccc(OCc2cc(F)ccc2-c2cnc(C3CC3)nc2)cc1 [Example 31, 4-(4-((2-(2-Cyclopropylpyrimidin-5-yl)-5-fluorobenzyl)oxy)phenyl)butanoic acid] | 0.01 to 0.5 |
| O=C(O)CCCc1ccc(OCc2cc(F)ccc2-c2scnc2C2CC2)cc1 [Example 32, 4-(4-((2-(4-Cyclopropylthiazol-5-yl)-5-fluorobenzyl)oxy)phenyl)butanoic acid] | 5 to 50 |
| O=C(O)CCCc1ccc(OCc2ccccc2-c2ccc3c(c2)CCC3)cc1 [Example 33, 4-(4-((2-(2,3-Dihydro-1H-inden-5-yl)benzyl)oxy)phenyl)butanoic acid] | 0.01 to 0.5 |

| Structure (SMILES) | EC50 [µM] |
| --- | --- |
| O=C(O)CCCc1ccc(OCc2cc(F)ccc2-c2ccc3c(c2)CCCC3=O)cc1 [Example 34, 4-(4-((5-Fluoro-2-(5-oxo-5,6,7,8-tetrahydronaphthalen-2-yl)benzyl)oxy)phenyl)butanoic acid] | 0.5 to 5 |
| O=C(O)CCCc1ccc(OCc2cc(F)ccc2-c2ccc3c(c2)CCC=C3)cc1 [Example 35, 4-(4-((2-(7,8-Dihydronaphthalen-2-yl)-5-fluorobenzyl)oxy)phenyl)butanoic acid] | 0.01 to 0.5 |
| C=C1CCCc2cc(-c3ccc(F)cc3COc3ccc(CCCC(=O)O)cc3)ccc21 [Example 36, 4-(4-((5-Fluoro-2-(5-methylene-5,6,7,8-tetrahydronaphthalen-2-yl)benzyl)oxy)phenyl)butanoic acid] | 0.01 to 0.5 |
| CC1=CCCc2cc(-c3ccc(F)cc3COc3ccc(CCCC(=O)O)cc3)ccc21 [Example 37] | 0.5 to 5 |
| COC1CCCc2cc(-c3ccc(F)cc3COc3ccc(CCCC(=O)O)cc3)ccc21 (stereo not shown) [Example 38, 4-(4-((5-Fluoro-2-(5-methoxy-5,6,7,8-tetrahydronaphthalen-2-yl)benzyl)oxy)phenyl)butanoic acid] | 5 to 50 |
| COC1(C)CCCc2cc(-c3ccc(F)cc3COc3ccc(CCCC(=O)O)cc3)ccc21 (stereo not shown) [Example 39, 4-(4-((5-Fluoro-2-(5-methoxy-5-methyl-5,6,7,8-tetrahydronaphthalen-2-yl)benzyl)oxy)phenyl)butanoic acid] | 5 to 50 |
| CC1(c2ccc(-c3ccc(F)cc3COc3ccc(CCCC(=O)O)cc3)s2)CC1 [Example 40, 4-(4-((5-Fluoro-2-(5-(1-methylcyclopropyl)thiophen-2-yl)benzyl)oxy)phenyl)butanoic acid] | 0.01 to 0.5 |
| O=C(O)CCCc1ccc(OCc2cc(F)ccc2-c2nc3c(s2)CCCCC3)cc1 [Example 41, 4-(4-((5-Fluoro-2-(5,6,7,8-tetrahydro-4H-cyclohepta[d]thiazol-2-yl)benzyl)oxy)phenyl)butanoic acid] | 0.01 to 0.5 |
| O=C(O)CCCc1ccc(OCc2cc(F)ccc2-c2ccc(C3(F)CC3)s2)cc1 [Example 42, 4-(4-((5-Fluoro-2-(5-(1-fluorocyclopropyl)thiophen-2-yl)benzyl)oxy)phenyl)butanoic acid] | 5 to 50 |
| O=C(O)CCCc1ccc(OCc2cc(F)ccc2-c2ccc(C3CC3(F)F)cc2)cc1 (stereo not shown) [Example 43, 4-(4-((4′-(2,2-Difluorocyclopropyl)-4-fluoro-[1,1′-biphenyl]-2-yl)methoxy)phenyl)butanoic acid] | 0.01 to 0.5 |
| O=C(O)CCCc1ccc(OCc2cc(F)ccc2-c2nnc(C3CC3)s2)cc1 [Example 44, 4-(4-((2-(5-Cyclopropyl-1,3,4-thiadiazol-2-yl)-5-fluorobenzyl)oxy)phenyl)butanoic acid] | 0.01 to 0.5 |
| O=C(O)CCCc1ccc(OCc2cc(F)ccc2-c2ncc(C3CC3)s2)cc1 [Example 45, 4-(4-((2-(5-Cyclopropylthiazol-2-yl)-5-fluorobenzyl)oxy)phenyl)butanoic acid] | 0.01 to 0.5 |
| O=C(O)CCCc1ccc(OCc2cc(F)ccc2-c2nc3c(s2)CCCC3)cc1 [Example 46, 4-(4-((5-Fluoro-2-(4,5,6,7-tetrahydrobenzo[d]thiazol-2-yl)benzyl)oxy)phenyl)butanoic acid] | 0.01 to 0.5 |
| O=C(O)CCCc1ccc(OCc2cc(F)ccc2-c2nc3c(s2)CCC3)cc1 [Example 47, 4-(4-((2-(5,6-dihydro-4H-cyclopenta[d]thiazol-2-yl)-5-fluorobenzyl)oxy)phenyl)butanoic acid] | 0.01 to 0.5 |
| O=C(O)CCCc1ccc(OCc2cc(F)ccc2-c2nc3c(s2)COCC3)cc1 [Example 48, 4-(4-((2-(6,7-Dihydro-4H-pyrano[4,3-d]thiazol-2-yl)-5-fluorobenzyl)oxy)phenyl)butanoic acid] | 0.5 to 5 |
| O=C(O)CCCc1ccc(OCc2cc(F)ccc2-c2nc3c(s2)COCC3)cc1 [Example 49, 4-(4-((2-(6,7-Dihydro-4H-pyrano[4,3-d]thiazol-2-yl)-5-fluorobenzyl)oxy)phenyl)butanoic acid] | 0.01 to 0.5 |
| O=C(O)CCCc1ccc(OCc2cc(F)ccc2-c2nc(C3CC3)cs2)cc1 [Example 50, 4-(4-((2-(4-Cyclopropylthiazol-2-yl)-5-fluorobenzyl)oxy)phenyl)butanoic acid] | 0.5 to 5 |
